Read-outs that look alike come from different tables or passages of the source.
Target: T1, Recombinant human cathepsin A (Homo sapiens, UniProt P10619)
T1 construct: Recombinant human cathepsin A (residues 29-480, with a C-terminal 10-His tag); 10-His (C); purchased R&D Systems 1049-SE
T1 sequence (P10619 29-312 limits assumed): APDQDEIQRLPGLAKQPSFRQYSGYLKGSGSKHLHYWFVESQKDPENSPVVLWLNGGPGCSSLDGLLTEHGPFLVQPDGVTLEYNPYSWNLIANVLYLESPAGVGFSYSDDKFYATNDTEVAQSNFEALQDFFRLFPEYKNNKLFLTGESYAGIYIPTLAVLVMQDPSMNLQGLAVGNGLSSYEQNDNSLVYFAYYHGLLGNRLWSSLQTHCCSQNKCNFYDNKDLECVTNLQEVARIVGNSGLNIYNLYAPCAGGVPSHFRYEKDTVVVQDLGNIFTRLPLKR
T1 sequence (P10619 327-480 limits assumed): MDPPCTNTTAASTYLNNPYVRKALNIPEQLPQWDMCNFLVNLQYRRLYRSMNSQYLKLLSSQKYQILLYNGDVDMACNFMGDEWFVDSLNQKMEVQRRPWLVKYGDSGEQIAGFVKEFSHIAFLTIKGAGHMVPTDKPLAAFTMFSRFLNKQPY
Assay: Cathepsin A inhibitory activity
Type: biochemical
Method in brief: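 Human cathepsin A (res. 29-480, C-His10) pre-activated with cathepsin L (MES pH 6.0, DTT, 15 min, 37 °C; quenched with 10 μM E-64). Enzyme (833 ng/ml) preincubated 15 min RT with compound in MES pH 5.5/DTT, then 2 μM Bodipy FL-bradykinin for 15 min RT. Capillary electrophoresis product/substrate peak areas; IC50 from % inhibition.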

[1] = recombinant human cathepsin A 833 ng/ml, Bodipy FL-labeled bradykinin 2 μM, pH 5.5, read-out: CATH-A IC50
[2] = recombinant human cathepsin A, read-out: Activity (2): Cathepsin A inhibitory activity, IC50 class

## O=C(O)CC(NC(=O)c1cc(O)n(-c2ccccc2F)n1)c1cc(F)ccc1Cl (stereo not shown) [Example 475, 3-(2-Chloro-5-fluoro-phenyl)-3-{[1-(2-fluoro-phenyl)-5-hydroxy-1H-pyrazole-3-carbonyl]-amino}-propionic acid]
[1]
  IC50: 0.137 µM
[2]
  IC50: 0.1 to 1 µM

## O=C(O)CC(NC(=O)c1cc(O)n(-c2ccccc2F)n1)c1cccc2c1OC(F)(F)O2 (stereo not shown) [Example 476]
[2]
  IC50: 0.1 to 1 µM

## O=C(O)CC(NC(=O)c1cc(O)n(-c2ccccc2F)n1)c1cc(F)ccc1C(F)(F)F (stereo not shown) [Example 477]
[2]
  IC50: 0.1 to 1 µM

## Cc1ccc(F)cc1C(CC(=O)O)NC(=O)c1cc(O)n(-c2ccccc2F)n1 (stereo not shown) [Example 478]
[2]
  IC50: < 0.1 µM

## O=C(O)CC(NC(=O)c1cc(O)n(-c2ccccc2F)n1)c1cc(Cl)ccc1Cl (stereo not shown) [Example 479]
[2]
  IC50: < 0.1 µM

## Cc1ccc([C@H](CC(=O)O)NC(=O)c2cc(O)n(-c3ccccc3F)n2)cc1 [Example 480]
[2]
  IC50: 0.1 to 1 µM

## O=C(O)CC(NC(=O)c1cc(O)n(-c2ccccc2F)n1)c1ccc(-c2ccccn2)cc1 (stereo not shown) [Example 481]
[2]
  IC50: 0.1 to 1 µM

## Cc1c(F)cccc1C(CC(=O)O)NC(=O)c1cc(O)n(-c2cccc(F)c2)n1 (stereo not shown) [Example 482]
[2]
  IC50: 0.1 to 1 µM

## O=C(O)CC(NC(=O)c1cc(O)n(-c2cccc(F)c2)n1)c1cc(F)ccc1Cl (stereo not shown) [Example 483]
[2]
  IC50: 0.1 to 1 µM

## O=C(O)CC(NC(=O)c1cc(O)n(-c2cccc(F)c2)n1)c1cccc2c1OC(F)(F)O2 (stereo not shown) [Example 484]
[2]
  IC50: 0.1 to 1 µM

## O=C(O)CC(NC(=O)c1cc(O)n(-c2cccc(F)c2)n1)c1cc(F)ccc1F (stereo not shown) [Example 485]
[2]
  IC50: 0.1 to 1 µM

## O=C(O)CC(NC(=O)c1cc(O)n(-c2cccc(F)c2)n1)c1cc(F)ccc1C(F)(F)F (stereo not shown) [Example 486]
[2]
  IC50: 0.1 to 1 µM

## Cc1ccc(F)cc1C(CC(=O)O)NC(=O)c1cc(O)n(-c2cccc(F)c2)n1 (stereo not shown) [Example 487]
[2]
  IC50: 0.1 to 1 µM

## O=C(O)CC(NC(=O)c1cc(O)n(-c2cccc(F)c2)n1)c1cc(Cl)ccc1Cl (stereo not shown) [Example 488]
[2]
  IC50: 0.1 to 1 µM

## Cc1ccc([C@H](CC(=O)O)NC(=O)c2cc(O)n(-c3cccc(F)c3)n2)cc1 [Example 489]
[2]
  IC50: 0.1 to 1 µM

## CN(C)c1ccc(C(CC(=O)O)NC(=O)c2cc(O)n(-c3ccc(F)cc3)n2)c(Cl)c1 (stereo not shown) [Example 490]
[2]
  IC50: 1 to 30 µM

## O=C(O)CC(NC(=O)c1cc(O)n(-c2ccc(F)cc2)n1)c1cccc2c1OC(F)(F)O2 (stereo not shown) [Example 491]
[2]
  IC50: 0.1 to 1 µM

## Cc1ccc(F)cc1C(CC(=O)O)NC(=O)c1cc(O)n(-c2ccc(F)cc2)n1 (stereo not shown) [Example 492, 3-(5-Fluoro-2-methyl-phenyl)-3-{[1-(4-fluoro-phenyl)-5-hydroxy-1H-pyrazole-3-carbonyl]-amino}-propionic acid]
[1]
  IC50: 0.175 µM
[2]
  IC50: 0.1 to 1 µM

## O=C(O)CC(NC(=O)c1cc(O)n(-c2ccc(F)cc2)n1)c1cc(Cl)ccc1Cl (stereo not shown) [Example 493, 3-(2,5-Dichloro-phenyl)-3-{[1-(4-fluoro-phenyl)-5-hydroxy-1H-pyrazole-3-carbonyl]-amino}-propionic acid]
[1]
  IC50: 0.246 µM
[2]
  IC50: 0.1 to 1 µM

## Cc1c(F)cccc1C(CC(=O)O)NC(=O)c1cc(O)n(-c2ccccc2)n1 (stereo not shown) [Example 494, 3-(3-Fluoro-2-methyl-phenyl)-3-[(5-hydroxy-1-phenyl-1H-pyrazole-3-carbonyl)-amino]-propionic acid]
[1]
  IC50: 0.142 µM
[2]
  IC50: 0.1 to 1 µM

## O=C(O)CC(NC(=O)c1cc(O)n(-c2ccccc2)n1)c1cc(F)ccc1Cl (stereo not shown) [Example 495, 3-(2-Chloro-5-fluoro-phenyl)-3-[(5-hydroxy-1-phenyl-1H-pyrazole-3-carbonyl)-amino]-propionic acid]
[1]
  IC50: 0.213 µM
[2]
  IC50: 0.1 to 1 µM

## O=C(O)CC(NC(=O)c1cc(O)n(-c2ccccc2)n1)c1cccc2c1OC(F)(F)O2 (stereo not shown) [Example 496, 3-(2,2-Difluoro-benzo[1,3]dioxol-4-yl)-3-[(5-hydroxy-1-phenyl-1H-pyrazole-3-carbonyl)-amino]-propionic acid]
[1]
  IC50: 0.167 µM
[2]
  IC50: 0.1 to 1 µM

## Cc1ccc(F)cc1C(CC(=O)O)NC(=O)c1cc(O)n(-c2ccccc2)n1 (stereo not shown) [Example 497, 3-(5-Fluoro-2-methyl-phenyl)-3-[(5-hydroxy-1-phenyl-1H-pyrazole-3-carbonyl)-amino]-propionic acid]
[1]
  IC50: 0.145 µM
[2]
  IC50: 0.1 to 1 µM

## COc1ccc(F)cc1C(CC(=O)O)NC(=O)c1cc(O)n(-c2ccccc2)n1 (stereo not shown) [Example 498, 3-(5-Fluoro-2-methoxy-phenyl)-3-[(5-hydroxy-1-phenyl-1H-pyrazole-3-carbonyl)-amino]-propionic acid]
[1]
  IC50: 0.143 µM
[2]
  IC50: 0.1 to 1 µM

## O=C(O)CC(NC(=O)c1cc(O)n(-c2ccccc2)n1)c1ccc(-c2ccccn2)cc1 (stereo not shown) [Example 499, 3-[(5-Hydroxy-1-phenyl-1H-pyrazole-3-carbonyl)-amino]-3-(4-pyridin-2-yl-phenyl)-propionic acid; compound with trifluoro-acetic acid]
[1]
  IC50: 0.147 µM
[2]
  IC50: 0.1 to 1 µM

## O=C(O)CC(NC(=O)c1cc(O)n(-c2ccc(F)cc2F)n1)c1cc(Cl)ccc1Cl (stereo not shown) [Example 500, 3-(2,5-Dichloro-phenyl)-3-{[1-(2,4-difluoro-phenyl)-5-hydroxy-1H-pyrazole-3-carbonyl]-amino}-propionic acid]
[1]
  IC50: 0.0863 µM
[2]
  IC50: < 0.1 µM

## O=C(O)CC(NC(=O)c1cc(O)n(-c2ccc(F)cc2F)n1)c1ccc(-c2ccccn2)cc1 (stereo not shown) [Example 501]
[2]
  IC50: < 0.1 µM

## O=C(O)C[C@H](NC(=O)c1cc(O)n(-c2ccc(F)cc2F)n1)c1ccccc1Cl [Example 502, (S)-3-(2-Chloro-phenyl)-3-{[1-(2,4-difluoro-phenyl)-5-hydroxy-1H-pyrazole-3-carbonyl]-amino}-propionic acid]
[1]
  IC50: 0.116 µM
[2]
  IC50: 0.1 to 1 µM

## O=C(O)CC(NC(=O)c1cc(O)n(-c2ccccc2Cl)n1)c1cccc2c1OC(F)(F)O2 (stereo not shown) [Example 503, 3-{[1-(2-Chloro-phenyl)-5-hydroxy-1H-pyrazole-3-carbonyl]-amino}-3-(2,2-difluoro-benzo[1,3]dioxol-4-yl)-propionic acid]
[1]
  IC50: 0.391 µM
[2]
  IC50: 0.1 to 1 µM

## COc1ccc(F)cc1C(CC(=O)O)NC(=O)c1cc(O)n(-c2ccccc2Cl)n1 (stereo not shown) [Example 504, 3-{[1-(2-Chloro-phenyl)-5-hydroxy-1H-pyrazole-3-carbonyl]-amino}-3-(5-fluoro-2-methoxy-phenyl)-propionic acid]
[1]
  IC50: 0.123 µM
[2]
  IC50: 0.1 to 1 µM

## O=C(O)CC(NC(=O)c1cc(O)n(-c2ccccc2Cl)n1)c1ccc(N2CCOCC2)cc1 (stereo not shown) [Example 505, 3-{[1-(2-Chloro-phenyl)-5-hydroxy-1H-pyrazole-3-carbonyl]-amino}-3-(4-morpholin-4-yl-phenyl)-propionic acid]
[1]
  IC50: 29.8 µM
[2]
  IC50: 1 to 30 µM

## O=C(O)CC(NC(=O)c1cc(O)n(-c2ccccc2Cl)n1)c1ccc(-c2ccccn2)cc1 (stereo not shown) [Example 506, 3-{[1-(2-Chloro-phenyl)-5-hydroxy-1H-pyrazole-3-carbonyl]-amino}-3-(4-pyridin-2-yl-phenyl)-propionic acid]
[1]
  IC50: 0.0524 µM
[2]
  IC50: < 0.1 µM

## O=C(O)C[C@H](NC(=O)c1cc(O)n(-c2ccccc2Cl)n1)c1ccccc1Cl [Example 507, (S)-3-(2-Chloro-phenyl)-3-{[1-(2-chloro-phenyl)-5-hydroxy-1H-pyrazole-3-carbonyl]-amino}-propionic acid]
[1]
  IC50: 0.161 µM
[2]
  IC50: 0.1 to 1 µM

## Cc1c(F)cccc1C(CC(=O)O)NC(=O)c1cc(O)n(-c2cccc(Cl)c2)n1 (stereo not shown) [Example 508, 3-{[1-(3-Chloro-phenyl)-5-hydroxy-1H-pyrazole-3-carbonyl]-amino}-3-(3-fluoro-2-methyl-phenyl)-propionic acid]
[1]
  IC50: 0.137 µM
[2]
  IC50: 0.1 to 1 µM

## O=C(O)CC(NC(=O)c1cc(O)n(-c2cccc(Cl)c2)n1)c1cc(F)ccc1Cl (stereo not shown) [Example 509, 3-(2-Chloro-5-fluoro-phenyl)-3-{[1-(3-chloro-phenyl)-5-hydroxy-1H-pyrazole-3-carbonyl]-amino}-propionic acid]
[1]
  IC50: 0.1 µM
[2]
  IC50: 0.1 to 1 µM

## Cc1ccc(F)cc1C(CC(=O)O)NC(=O)c1cc(O)n(-c2cccc(Cl)c2)n1 (stereo not shown) [Example 510, 3-{[1-(3-Chloro-phenyl)-5-hydroxy-1H-pyrazole-3-carbonyl]-amino}-3-(5-fluoro-2-methyl-phenyl)-propionic acid]
[1]
  IC50: 0.175 µM
[2]
  IC50: 0.1 to 1 µM

## O=C(O)CC(NC(=O)c1cc(O)n(-c2cccc(Cl)c2)n1)c1cc(Cl)ccc1Cl (stereo not shown) [Example 511, 3-{[1-(3-Chloro-phenyl)-5-hydroxy-1H-pyrazole-3-carbonyl]-amino}-3-(2,5-dichloro-phenyl)-propionic acid]
[1]
  IC50: 0.102 µM
[2]
  IC50: 0.1 to 1 µM

## Cc1ccc([C@H](CC(=O)O)NC(=O)c2cc(O)n(-c3cccc(Cl)c3)n2)cc1 [Example 512, (S)-3-{[1-(3-Chloro-phenyl)-5-hydroxy-1H-pyrazole-3-carbonyl]-amino}-3-p-tolyl-propionic acid]
[1]
  IC50: 0.155 µM
[2]
  IC50: 0.1 to 1 µM

## O=C(O)CC(NC(=O)c1cc(O)n(-c2cccc(Cl)c2)n1)c1ccc(-c2ccccn2)cc1 (stereo not shown) [Example 513, 3-{[1-(3-Chloro-phenyl)-5-hydroxy-1H-pyrazole-3-carbonyl]-amino}-3-(4-pyridin-2-yl-phenyl)-propionic acid]
[1]
  IC50: 0.195 µM
[2]
  IC50: 0.1 to 1 µM
